# Results as given in the supplement of paper PMC10307832.
# Experiments:
# Assay in all cases: relative viability (nuclei count vs DMSO), 5 days (fraction); higher = more cells survive
# [1] = compound: Cc1ccc2nc(NCCN)c3ncc(C)n3c2c1 + C[C@]1(O)C[C@@H](c2nc(-c3ccc4ccc(-c5ccccc5)nc4c3)c3c(N)nccn32)C1 [Linsitinib] (partner 1 µM)
# Summary of the method: (§1)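 For relative viability, nuclei counts in treated wells were divided by those in vehicle wells. Lung cancer cell lines had been pin-tool dosed in 1536-well plates the day after seeding and cultured for 5 days, then fixed and stained in one step (final 0.05% Triton X-100, 1% formaldehyde, 1 ug/ml Hoechst) and imaged at 4×. Doses were one drug alone or a fixed anchor-drug dose plus five library-drug doses (not always all listed) in √10 steps, and values are duplicate-plate medians.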
# Salubrinal + Pictilisib = compound: O=C(/C=C/c1ccccc1)NC(NC(=S)Nc1cccc2cccnc12)C(Cl)(Cl)Cl [Salubrinal] + CS(=O)(=O)N1CCN(Cc2cc3nc(-c4cccc5[nH]ncc45)nc(N4CCOCC4)c3s2)CC1 [Pictilisib] (partner 1 µM)
# Summary of the method: as §1
# [2] = compound: Cc1ccc2nc(NCCN)c3ncc(C)n3c2c1 + C[C@@H](Oc1cc(-c2cnn(C3CCNCC3)c2)cnc1N)c1c(Cl)ccc(F)c1Cl [Crizotinib] (partner 1 µM)
# Summary of the method: as §1
# [3] = compound: Cc1ccc2nc(NCCN)c3ncc(C)n3c2c1 + COc1cc2c(Oc3ccc(NC(=O)C4(C(=O)Nc5ccc(F)cc5)CC4)cc3F)ccnc2cc1OCCCN1CCOCC1 [Foretinib] (partner 0.25 µM)
# Summary of the method: as §1
Cell Line,relative viability ([1]; first compound 0.04 µM),relative viability ([1]; first compound 0.1265 µM),relative viability ([1]; first compound 0.4 µM),relative viability ([1]; first compound 1.265 µM),relative viability ([1]; first compound 4 µM),relative viability (Salubrinal + Pictilisib; first compound 0.08 µM),relative viability (Salubrinal + Pictilisib; first compound 0.253 µM),relative viability (Salubrinal + Pictilisib; first compound 0.8 µM),relative viability (Salubrinal + Pictilisib; first compound 2.53 µM),relative viability (Salubrinal + Pictilisib; first compound 8 µM),relative viability ([2]; first compound 0.04 µM),relative viability ([2]; first compound 0.1265 µM),relative viability ([2]; first compound 0.4 µM),relative viability ([2]; first compound 1.265 µM),relative viability ([2]; first compound 4 µM),relative viability ([3]; first compound 0.04 µM),relative viability ([3]; first compound 0.1265 µM),relative viability ([3]; first compound 0.4 µM),relative viability ([3]; first compound 1.265 µM),relative viability ([3]; first compound 4 µM)
NCI-H650,0.852,0.828,0.994,0.911,0.69,0.678,1.1,0.968,0.916,0.842,0.855,0.608,0.718,0.583,0.672,1.09,0.937,1.12,0.948,1
COR-L23,0.993,0.773,0.873,0.988,0.816,0.946,0.666,0.899,0.676,0.432,0.737,0.608,0.628,0.572,0.541,0.966,0.915,0.938,1.01,0.865
COR-L 105,1.11,0.964,0.873,1.1,0.845,0.419,0.358,0.406,0.349,0.421,0.797,0.721,0.887,0.704,0.422,1.18,0.995,0.86,0.987,1.15
LK-2,0.561,0.439,0.531,0.194,0.37,0.59,0.541,0.666,0.512,0.575,0.228,0.258,0.214,0.222,0.238,1.28,1.2,0.936,0.967,1.06
201T,1,1.09,1.04,0.98,0.992,0.591,0.636,0.778,0.706,0.678,1.07,1.06,1.07,1.09,1.06,1.07,1.13,1.1,1.1,1.05
NCI-H596,1.26,1.02,0.869,1.03,1.03,0.421,0.347,0.437,0.456,0.401,1.06,0.929,1.03,0.961,0.851,0.811,0.81,0.912,0.889,0.7
H3255,0.955,0.876,0.819,0.915,0.944,0.561,0.535,0.576,0.456,0.487,0.939,0.743,0.846,0.788,0.694,1.11,0.961,0.744,0.98,0.764
NCI-H647,1.34,1.15,1.22,1.08,1.18,0.298,0.421,0.421,0.501,0.427,1.29,1.03,1.12,0.93,0.852,1.06,1.18,1.23,1.15,0.912
